According to PMC6107548, “Identification and characterization of aspartyl-tRNA synthetase inhibitors against Mycobacterium tuberculosis by an integrated whole-cell target-based approach” (Scientific Reports, 2018):
≈ marks a conversion by molar mass, not a printed value. Like-named read-outs stand apart in the source and are kept apart here.

Columns and labels:
[1] = test system: M.tuberculosis H37Rv; experiment: MIC against M. tuberculosis H37Rv (extracellular); assay type: cell-based; settings: Mycobacterium tuberculosis
[2] = test system: M.bovis BCG empty pMV261; experiment: microbe, parasite or virus in culture; assay type: cell-based; settings: Mycobacterium tuberculosis variant bovis BCG
[3] = test system: M.bovis BCG pMV261::Mt-AspRS; experiment: microbe, parasite or virus in culture; assay type: cell-based, Mycobacterium bovis BCG; settings: for MIC: Mycobacterium tuberculosis variant bovis BCG, BCG
[4] = test system: M.tb H37Rv (intra); experiment: MIC against intracellular M.tb H37Rv; assay type: cell-based; settings: Mycobacterium tuberculosis, Table S2
[5] = test system: HepG2; experiment: HepG2 cytotoxicity; assay type: cell-based; settings: Homo sapiens, Table S2
[6] = molecular target: T1, Mt-AspRS (Mycobacterium tuberculosis, UniProt P9WFW3); experiment: biochemical
T1 sequence (P9WFW3 whole entry): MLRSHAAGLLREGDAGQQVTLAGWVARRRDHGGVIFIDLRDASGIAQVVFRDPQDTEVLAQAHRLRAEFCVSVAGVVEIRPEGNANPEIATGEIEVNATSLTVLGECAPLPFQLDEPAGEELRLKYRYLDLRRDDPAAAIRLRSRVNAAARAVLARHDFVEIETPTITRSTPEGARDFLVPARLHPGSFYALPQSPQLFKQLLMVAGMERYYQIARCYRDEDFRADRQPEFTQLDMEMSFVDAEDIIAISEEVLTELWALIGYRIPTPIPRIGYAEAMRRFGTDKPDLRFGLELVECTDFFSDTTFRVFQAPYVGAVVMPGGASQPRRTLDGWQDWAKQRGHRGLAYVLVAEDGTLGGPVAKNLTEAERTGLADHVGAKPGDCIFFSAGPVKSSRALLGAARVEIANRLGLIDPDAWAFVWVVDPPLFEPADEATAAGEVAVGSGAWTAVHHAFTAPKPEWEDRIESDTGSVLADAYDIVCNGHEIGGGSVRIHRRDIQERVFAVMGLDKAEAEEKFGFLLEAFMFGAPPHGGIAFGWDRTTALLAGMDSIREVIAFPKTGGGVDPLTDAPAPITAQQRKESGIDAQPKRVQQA

[7] = molecular target: T1, Mt-AspRS; experiment: Mechanistic characterization, competition with ADPCP in tRNA-independent reaction; assay type: biochemical; design: made in house; settings: ADPCP 0-4000 μM; inhibitor 50 and 100 μM
[8] = molecular target: T1, Mt-AspRS; experiment: tRNA-independent ATP release assay (coupled enzymes, NADPH fluorescence); assay type: biochemical; design: made in house; settings: Table S2, 0.5 μM enzyme, 2 mM ADPCP, mean of two replicates
[9] = test system: N[C@@H](CC(=O)O)C(=O)O; experiment: purified protein, by the assay type; settings: pH 7.7; 37.0 °C
[10] = Table S1, read-out: MIC M.tuberculosis H37Rv
[11] = Table S2, extracellular, read-out: MIC M.tb H37Rv (extra)
[12] = read-out: MIC M. bovis empty pMV261 BCG
[13] = read-out: MIC M.bovis BCG empty pMV261
[14] = read-out: MIC M. bovis BCG pMV261::AspRS
[15] = read-out: MIC M.bovis BCG pMV261::Mt-AspRS

Compound | MIC [1, 10] [µM] | MIC [1, 11] [µM] | MIC [2, 12] [µM] | MIC [2, 13] [µM] | Ratio (MIC shift) [3] | MIC [3, 14] [µM] | MIC [3, 15] [µM] | MIC [4] [µM] | IC50 [5] [µM] | IC50 [6] [µM] | mode of inhibition with regard to ADPCP [7] | IC50 [8] [µM] | Km [9] [µM]
O=C(O)c1ccc(Nc2nc(-c3cccs3)cs2)cc1O [GSK93A] | 31.2 (≈ 9.95 µg/mL) | 31.2 (≈ 9.95 µg/mL) | 0.4 (≈ 0.127 µg/mL) | 0.4 (≈ 0.127 µg/mL) | 4.3 | 1.7 (≈ 0.541 µg/mL) | 1.7 (≈ 0.541 µg/mL) | > 50.1 | > 100 | 35.6 | Reversible and non-competitive | – | –
N#Cc1ccc(COc2ccc3c(c2)CCN(C(=O)/C=C/c2ccc(Nc4ccc(F)cn4)cc2)C3)cc1 [GSK85A] | – | 2.5 (≈ 1.26 µg/mL) | – | – | – | – | – | > 50.1 | 25.1 | – | – | 3.37 | –
Nc1ccc(/C=C/C(=O)N2CCC(COc3cccnc3)CC2)cn1 [GSK92A] | – | > 80 | – | – | – | – | – | > 50.1 | > 100 | – | – | 21.3 | –
Mt-AspRS (Mycobacterium tuberculosis H37Rv) | – | – | – | – | – | – | – | – | – | – | – | – | 13.8 ± 9.6
O=C1OC2(CCC(CNc3ccc(-c4cc(F)cc(F)c4)nn3)CC2)CN1c1cccnn1 (stereo not shown) [GSK97C] | 20 (≈ 9.05 µg/mL) | 20 (≈ 9.05 µg/mL) | 10.5 (≈ 4.75 µg/mL) | 10.5 (≈ 4.75 µg/mL) | 2.4 | 24.9 (≈ 11.3 µg/mL) | 24.9 (≈ 11.3 µg/mL) | 3.16 (≈ 1.43 µg/mL) | 40 | 1.12 | Reversible and non-competitive | – | –
